System: human gastric cancer MGC-803 cells
Method: Pharmaceutical reagents were divided into four groups including ZnHgSe quantum dot group, DMF group, DMF-QD group and blank control group. Human gastric cancer MGC-803 cells in exponential phase were digested with trypsin, followed by addition of medium containing 10% fetal bovine serum to make a single cell suspension. The cells were seeded in a 96-well cell culture plate (100 μL of cell suspension was added to each well, containing 9×10^3 cells) and cultured in an incubator of 37° C. and 5% CO2 for 24 h until the cells adhered to the wall of the 96-well plate. Three groups of drug solutions with concentration gradients were added (ZnHgSe quantum dot gradient: 2400 μg·mL^−1, 1200 μg·mL^−1, 600 μg mL^−1, 300 μg·mL^−1, 150 μg·mL^−1, and 75 μg·mL^−1; DMF gradient: 800 μg mL^−1, 400 μg·mL^−1, 200 μg·mL^−1, 100 μg·mL^−1, 50 μg·mL^−1, and 25 μg·mL^−1; corresponding DMF-QD gradient was determined according to DMF concentration by equivalent conversion). Each group was repeated with 6 wells, with an additional zero-adjustment well and a control well. […] The absorbance value OD of each well was measured by an enzyme-linked immunosorbent detector at a wavelength of 490 nm, and the cell growth inhibition rate (IC50) was calculated. IC50 value was calculated according to the modified Karber's method: […]

Substance: dextran-magnetic layered double hydroxide-fluorouracil [DMF]
- cytotoxicity per unit mass relative to quantum dots: about 2.6 times

From patent publication US11007196B1, “Method for preparing composition of matter comprising fluorouracil and zinc-mercury-selenium quantum dot” (priority 2020, dated 2021)
